Where two headings read alike, the source gives them in different places.
What was measured:
primary CML cells = test: Loss of viability, trypan blue uptake; format: cell-based; details: Homo sapiens, 48 h
primary AML cells = test: Loss of viability, trypan blue uptake; format: cell-based; details: Homo sapiens
[1] = Loss of viability, trypan blue uptake; format: cell-based; details: human, Normal CD34+ cells
[2] = tested on: hsp90 chaperone function in CML cells; details: previous studies, cited from earlier work
MV4-11 cells [3] = test: Cell cycle status, propidium iodide flow cytometry; format: cell-based, human; details: for % of cells G0/G1 / % of cells G2/M / % of cells S: MV4-11, 24 hours, mean ± S.E.M.
K562 cells [4] = test: Cell cycle status, propidium iodide flow cytometry; format: cell-based, human; details: for % of cells G0/G1 / % of cells G2/M / % of cells S: K562, 24 hours, mean ± S.E.M.
U937 cells = test: Apoptosis; format: cell-based, human; details: 20 to 50 nM, dose-dependently
[5] = tested on: FLT-3, p-STAT5, AKT, CDK4, hsp70 levels in MV4-11 cells; test: hsp90 client protein levels; format: cell-based, human; details: AUY922 alone
[6] = tested on: Bcr-Abl, p-STAT5, p-CrkL, AKT levels in K562 cells; test: hsp90 client protein levels; format: cell-based, human; details: 50-100 nM of AUY922
K562 cells [7] = test: Apoptosis; details: 50-100 nM
Procedure: FIG. 2 Analysis of dose effect relationship for AUY922 and LBH589 for the apoptotic effects after 48 hours of exposure was done according to the median effect of Chou and Talalay.

MV4-11 cells [8] = test: Apoptosis, annexin V flow cytometry; details: 20 to 50 nM, dose-dependently, FIG. 1
Procedure: Following this, the percentages of annexin V-positive apoptotic cells were determined by flow cytometry. Values represent the mean±S.E.M. of three experiments.

Cc1[nH]c2ccccc2c1CCNCc1ccc(/C=C/C(=O)NO)cc1 [LBH589, N-hydroxy-3-[4-[[[2-(2-methyl-1H-indol-3-yl)-ethyl]-amino]methyl]phenyl]-2E-2-propenamide]
cytotoxicity at 0.05 µM (primary CML cells; CML#1, 50 nmol/L LBH589, read-out: % non-viable cells): 43.3%
cytotoxicity at 0.05 µM (primary CML cells; CML#2, 50 nmol/L LBH589, read-out: % non-viable cells): 21.4%
cytotoxicity at 0.05 µM (primary CML cells; CML#3, 50 nmol/L LBH589, read-out: % non-viable cells): 47.8%
cytotoxicity at 0.05 µM (primary CML cells; CML#4, 50 nmol/L LBH589, read-out: % non-viable cells): 37.6%
cytotoxicity at 0.05 µM (primary AML cells; 48 h, AML#2, 50 nmol/L LBH589, read-out: % non-viable cells): 54.7%
cytotoxicity at 0.05 µM (primary AML cells; 48 h, AML#4, 50 nmol/L LBH589, read-out: % non-viable cells): 53.8%
cytotoxicity at 0.05 µM (primary AML cells; 48 h, AML#5, 50 nmol/L LBH589, read-out: % non-viable cells): 61.8%
cytotoxicity at 0.05 µM (primary AML cells; 48 h, AML#6, 50 nmol/L LBH589, read-out: % non-viable cells): 17.8%
cytotoxicity at 0.05 µM (primary AML cells; 48 h, AML#7 CD34 enriched, 50 nmol/L LBH589, read-out: % non-viable cells): 56.7%
cytotoxicity at 0.05 µM (primary AML cells; AML1, 48 h, AML#1, 50 nmol/L LBH589, read-out: % non-viable cells): 80.7%
cytotoxicity at 0.05 µM (primary AML cells; AML3, 48 h, AML#3, 50 nmol/L LBH589, read-out: % non-viable cells): 46.3%
cytotoxicity at 48 h, 50 nmol/L ([1]; 50 nmol/L LBH589, read-out: % non-viable cells): 23.3%
client protein levels ([2]; CML cells): depletion of unmutated or mutant forms of Bcr-Abl, as well as of c-Raf and AKT
hsp90 acetylation and chaperone function ([2]; by inhibiting HDAC 6): induces acetylation and inhibition of hsp90 chaperone function

CCNC(=O)c1noc(-c2cc(C(C)C)c(O)cc2O)c1-c1ccc(CN2CCOCC2)cc1 [AUY922, 5-(2,4-Dihydroxy-5-isopropyl-phenyl)-4-(4-morpholin-4-ylmethyl-phenyl)-isoxazole-3-carboxylic acid ethylamide]
% of cells G0/G1 (MV4-11 cells [3]; 5 nM): 62.23 ± 0.33%
% of cells G2/M (MV4-11 cells [3]; 5 nM): 6.02 ± 0.74%
% of cells S (MV4-11 cells [3]; 5 nM): 31.74 ± 0.42%
% of cells G0/G1 (MV4-11 cells [3]; 10 nM): 63.54 ± 1.20%
% of cells G2/M (MV4-11 cells [3]; 10 nM): 6.30 ± 0.92%
% of cells S (MV4-11 cells [3]; 10 nM): 30.16 ± 0.39%
% of cells G0/G1 (MV4-11 cells [3]; 20 nM): 85.71 ± 2.14%
% of cells G2/M (MV4-11 cells [3]; 20 nM): 5.30 ± 0.71%
% of cells S (MV4-11 cells [3]; 20 nM): 8.98 ± 2.41%
% of cells G0/G1 (MV4-11 cells [3]; 50 nM): 79.57 ± 1.15%
% of cells G2/M (MV4-11 cells [3]; 50 nM): 11.96 ± 1.26%
% of cells S (MV4-11 cells [3]; 50 nM): 8.47 ± 2.30%
accumulation in G1 and G2/M phases, decline in S phase (MV4-11 cells [3]; MV4-11 cells): dose-dependently induced accumulation
% of cells G0/G1 (K562 cells [4]; 20 nM): 31.04 ± 3.11%
% of cells G2/M (K562 cells [4]; 20 nM): 8.54 ± 1.16%
% of cells S (K562 cells [4]; 20 nM): 60.41 ± 2.01%
% of cells G0/G1 (K562 cells [4]; 50 nM): 61.42 ± 5.30%
% of cells G2/M (K562 cells [4]; 50 nM): 4.43 ± 2.78%
% of cells S (K562 cells [4]; 50 nM): 34.14 ± 5.01%
% of cells G0/G1 (K562 cells [4]; 100 nM): 58.30 ± 2.87%
% of cells G2/M (K562 cells [4]; 100 nM): 21.73 ± 2.67%
% of cells S (K562 cells [4]; 100 nM): 19.97 ± 0.31%
% of cells G0/G1 (K562 cells [4]; 250 nM): 58.10 ± 4.47%
% of cells G2/M (K562 cells [4]; 250 nM): 21.38 ± 3.07%
% of cells S (K562 cells [4]; 250 nM): 20.47 ± 1.54%
accumulation in G1 and G2/M phases, decline in S phase (K562 cells [4]; K562 cells): dose-dependently induced accumulation
induced apoptosis, % of cells (U937 cells): 40-60%
client protein levels [5]: depletion of FLT-3, p-STAT5, AKT, and CDK4 levels
hsp70 levels [5]: induction of hsp70 levels
client protein levels [6]: depleted Bcr-Abl, p-STAT, p-CrkL and AKT levels
cytotoxicity at 0.02 µM (primary CML cells; CML#1, 20 nmol/L AUY922, read-out: % non-viable cells): 29.1%
cytotoxicity at 0.05 µM (primary CML cells; CML#1, 50 nmol/L AUY922, read-out: % non-viable cells): 33.6%
cytotoxicity at 0.02 µM (primary CML cells; CML#2, 20 nmol/L AUY922, read-out: % non-viable cells): 9.6%
cytotoxicity at 0.05 µM (primary CML cells; CML#2, 50 nmol/L AUY922, read-out: % non-viable cells): 13.9%
cytotoxicity at 0.02 µM (primary CML cells; CML#3, 20 nmol/L AUY922, read-out: % non-viable cells): 21.1%
cytotoxicity at 0.05 µM (primary CML cells; CML#3, 50 nmol/L AUY922, read-out: % non-viable cells): 25.3%
cytotoxicity at 0.02 µM (primary CML cells; CML#4, 20 nmol/L AUY922, read-out: % non-viable cells): 30.5%
cytotoxicity at 0.05 µM (primary CML cells; CML#4, 50 nmol/L AUY922, read-out: % non-viable cells): 32.8%
cytotoxicity at 0.02 µM (primary AML cells; 48 h, AML#2, 20 nmol/L AUY922, read-out: % non-viable cells): 54%
cytotoxicity at 0.05 µM (primary AML cells; 48 h, AML#2, 50 nmol/L AUY922, read-out: % non-viable cells): 58.9%
cytotoxicity at 0.02 µM (primary AML cells; 48 h, AML#4, 20 nmol/L AUY922, read-out: % non-viable cells): 43.2%
cytotoxicity at 0.05 µM (primary AML cells; 48 h, AML#4, 50 nmol/L AUY922, read-out: % non-viable cells): 50%
cytotoxicity at 0.02 µM (primary AML cells; 48 h, AML#5, 20 nmol/L AUY922, read-out: % non-viable cells): 32.1%
cytotoxicity at 0.05 µM (primary AML cells; 48 h, AML#5, 50 nmol/L AUY922, read-out: % non-viable cells): 27.7%
cytotoxicity at 0.02 µM (primary AML cells; 48 h, AML#6, 20 nmol/L AUY922, read-out: % non-viable cells): 11.9%
cytotoxicity at 0.05 µM (primary AML cells; 48 h, AML#6, 50 nmol/L AUY922, read-out: % non-viable cells): 21.4%
cytotoxicity at 0.02 µM (primary AML cells; 48 h, AML#7 CD34 enriched, 20 nmol/L AUY922, read-out: % non-viable cells): 70.1%
cytotoxicity at 0.05 µM (primary AML cells; 48 h, AML#7 CD34 enriched, 50 nmol/L AUY922, read-out: % non-viable cells): 70.9%
cytotoxicity at 0.02 µM (primary AML cells; AML1, 48 h, AML#1, 20 nmol/L AUY922, read-out: % non-viable cells): 38.8%
cytotoxicity at 0.05 µM (primary AML cells; AML1, 48 h, AML#1, 50 nmol/L AUY922, read-out: % non-viable cells): 45.1%
cytotoxicity at 0.02 µM (primary AML cells; AML3, 48 h, AML#3, 20 nmol/L AUY922, read-out: % non-viable cells): 40.1%
cytotoxicity at 0.05 µM (primary AML cells; AML3, 48 h, AML#3, 50 nmol/L AUY922, read-out: % non-viable cells): 42.7%
cytotoxicity at 48 h, 20 nmol/L ([1]; 20 nmol/L AUY922, read-out: % non-viable cells): 30.8%
cytotoxicity at 48 h, 50 nmol/L ([1]; 50 nmol/L AUY922, read-out: % non-viable cells): 31.6%
induced apoptosis, % of cells (K562 cells [7]): 30-50%
induced apoptosis, % of cells (MV4-11 cells [8]): 40-60%

Source: patent US20100069458A1, “COMBINATION OF LBH589 WITH OTHER THERAPEUTIC AGENTS FOR TREATING CANCER” (priority 2007, published 2010)
